Like-named read-outs stand apart in the source and are kept apart here.
Test: Multiple ascending dose (MAD) part, plasma pharmacokinetics
Type: in vivo, human
Settings: for CL/F / Kel / AI / CLss/F / Cavg / Cmin / Fl / RAUC2: AUC0-12 (Day 8)/AUC0-inf (Day 1) / AUC(0-t) / AUC(0-inf) / Cmax / half-life / Vd/F: mean; for AUC(0-t) / AUC(0-inf) / Cmax / half-life / Vd/F / Tmax: human, plasma; for Vd/F: read-out: Vz/F; for Tmax: median
Description: Three cohorts of eight subjects each (six on active and two on placebo) were enrolled and received the following treatments orally: 100 mg, 200 mg, and 400 mg ASD-in-Capsule b.i.d. (one dose on Days 1 and 8, twice-daily doses from Days 2 to 7) (FIG. 4).
Blood samples were collected post-dosing on Day 1 (at 0.5, 1, 2, 3, 4, 6, 8, 12, and 16 hours) and Day 8 (at 0.5, 1, 2, 3, 4, 6, 8, 10, 12, 16, 20, 24, 30, 36, and 48 hours) as well as immediately pre-morning dose on Days 2-7 and 2 hours post-morning dose on Days 4 and 6. Within 15 minutes of collection, blood samples were centrifuged at 2000 rpm for 10 minutes at 4° C., and, subsequently, the plasma was aliquoted, frozen, and stored at −70° C. pending PK analyses.
The samples were subjected to liquid chromatography followed by analyses by tandem mass spectrometry. The lower limit of quantification for the compound of formula (I) was 5 ng/mL.
The plasma PK parameters were derived by non-compartmental analyses using Phoenix® WinNonlin® version 6.3 or higher (Pharsight Corporation Inc., Mountain View, CA, USA). PK variables were summarized using arithmetic mean, standard deviation, median, minimum, maximum, the percent coefficient of variation, geometric mean, and a two-sided 95% confidence limit of the arithmetic mean and the geometric mean.

[1] = Treatment A (100 mg ASD-in-Capsule oral), Day 1
[2] = Treatment A (100 mg, b.i.d. Days 2-7), Day 8
[3] = Treatment B (200 mg ASD-in-Capsule oral), Day 1
[4] = Treatment B (200 mg, b.i.d. Days 2-7), Day 8
[5] = Treatment C (400 mg ASD-in-Capsule oral), Day 1
[6] = Treatment C (400 mg, b.i.d. Days 2-7), Day 8
[7] = oral, Treatment A (100 mg, b.i.d. Days 2-7), Day 8
[8] = oral, Treatment B (200 mg, b.i.d. Days 2-7), Day 8
[9] = oral, Treatment C (400 mg, b.i.d. Days 2-7), Day 8

## Cc1cccc(COc2ccc(Sc3ccoc3C3NC(=O)NC3=O)cc2)c1 (stereo not drawn) [compound of formula (I)]
[1]
  CL/F: 28.7 L/h
  Kel: 0.106 h⁻¹
  AUC(0-inf): 3550 ng·h/mL
  Cmax: 448 ng/mL
  half-life: 6.9 h
  Vd/F: 291 L
  Tmax: 1 h
[2]
  AI: 1.59
  CLss/F: 23.1 L/h
  Cavg: 365 ng/mL
  Cmin: 156 ng/mL
  Fl: 127%
  Kel: 0.0897 h⁻¹
Treatment A (100 mg, b.i.d. Days 2-7)
  RAUC2: AUC0-12 (Day 8)/AUC0-inf (Day 1): 1.25
[3]
  CL/F: 20.3 L/h
  Kel: 0.119 h⁻¹
  AUC(0-inf): 10400 ng·h/mL
  Cmax: 1200 ng/mL
  half-life: 6.02 h
  Vd/F: 176 L
  Tmax: 1.02 h
[4]
  AI: 1.57
  CLss/F: 16.2 L/h
  Cavg: 1090 ng/mL
  Cmin: 524 ng/mL
  Fl: 132%
  Kel: 0.0895 h⁻¹
Treatment B (200 mg, b.i.d. Days 2-7)
  RAUC2: AUC0-12 (Day 8)/AUC0-inf (Day 1): 1.26
[5]
  CL/F: 24.0 L/h
  Kel: 0.113 h⁻¹
  AUC(0-inf): 19900 ng·h/mL
  Cmax: 2730 ng/mL
  half-life: 6.48 h
  Vd/F: 212 L
  Tmax: 1 h
[6]
  AI: 1.40
  CLss/F: 18.2 L/h
  Cavg: 2060 ng/mL
  Cmin: 1010 ng/mL
  Fl: 142%
  Kel: 0.115 h⁻¹
Treatment C (400 mg, b.i.d. Days 2-7)
  RAUC2: AUC0-12 (Day 8)/AUC0-inf (Day 1): 1.28
All three dose levels (100, 200, 400 mg b.i.d.)
  Steady state achieved: ≤ 6 days
From 200 to 400 mg after multiple doses for a week
  Increase of Cmax and AUC with dose: approximately in a dose-proportional manner
oral, 100 mg, Treatment A (100 mg, b.i.d. Days 2-7), Day 8, read-out: AUC0-12
  AUC(0-t): 4380 ng·h/mL
oral, 200 mg, Treatment B (200 mg, b.i.d. Days 2-7), Day 8, read-out: AUC0-12
  AUC(0-t): 13100 ng·h/mL
oral, 400 mg, Treatment C (400 mg, b.i.d. Days 2-7), Day 8, read-out: AUC0-12
  AUC(0-t): 24700 ng·h/mL
[7]
  AUC(0-inf): 6180 ng·h/mL
  Cmax: 624 ng/mL
  half-life: 8.37 h
  Vd/F: 277 L
  Tmax: 2 h
[8]
  AUC(0-inf): 19200 ng·h/mL
  Cmax: 1920 ng/mL
  half-life: 8.14 h
  Vd/F: 189 L
  Tmax: 1.5 h
[9]
  AUC(0-inf): 36300 ng·h/mL
  Cmax: 3710 ng/mL
  half-life: 6.57 h
  Vd/F: 158 L
  Tmax: 1.5 h
po, 100 mg, Treatment A (100 mg ASD-in-Capsule oral), Day 1, read-out: AUC0-12
  AUC(0-t): 2670 ng·h/mL
po, 100 mg, Treatment A (100 mg ASD-in-Capsule oral), Day 1, read-out: AUC0-24
  AUC(0-t): 3290 ng·h/mL
po, 100 mg, Treatment A (100 mg ASD-in-Capsule oral), Day 1, read-out: AUC0-t
  AUC(0-t): 3290 ng·h/mL
po, 200 mg, Treatment B (200 mg ASD-in-Capsule oral), Day 1, read-out: AUC0-12
  AUC(0-t): 7810 ng·h/mL
po, 200 mg, Treatment B (200 mg ASD-in-Capsule oral), Day 1, read-out: AUC0-24
  AUC(0-t): 9720 ng·h/mL
po, 200 mg, Treatment B (200 mg ASD-in-Capsule oral), Day 1, read-out: AUC0-t
  AUC(0-t): 9710 ng·h/mL
po, 400 mg, Treatment C (400 mg ASD-in-Capsule oral), Day 1, read-out: AUC0-12
  AUC(0-t): 14600 ng·h/mL
po, 400 mg, Treatment C (400 mg ASD-in-Capsule oral), Day 1, read-out: AUC0-24
  AUC(0-t): 18200 ng·h/mL
po, 400 mg, Treatment C (400 mg ASD-in-Capsule oral), Day 1, read-out: AUC0-t
  AUC(0-t): 18200 ng·h/mL
twice-daily administration, all three dose levels
  AUC ratio (Day 8/Day 1): approximately 1.7 fold

From patent US20240277670A1, “SAFE USE OF MMP-12 INHIBITOR” (Foresee Pharmaceuticals Co., Ltd., priority 2021, published 2024)
